Laboratory results: US20160280688A1, “SUBSTITUTED PHENYLALANINE DERIVATIVES” (BAYER PHARMA AKTIENGESELLSCHAFT, priority 2013, published 2016)
Counter-ions that a name gives are not always drawn.

How the values were obtained:
Type in all cases: biochemical
human and animal plasma = experiment: Determination of the anticoagulatory activity: activated partial thromboplastin time (aPTT) in plasma; settings: in vitro in plasma, C.K. Prest kit, 3 min at 37° C.
Description: The anticoagulatory activity of the test substances is determined in vitro in human and animal plasma (for example mouse, rat, rabbit, pig and dog plasma). To this end, blood is drawn off in a mixing ratio of sodium citrate/blood of 1:9 using a 0.11 molar sodium citrate solution as receiver. Immediately after the blood has been drawn off, it is mixed thoroughly and centrifuged at about 4000 g for 15 minutes. The supernatant is pipetted off.
The activated partial thromboplastin time (aPTT) is determined in the presence of varying concentrations of test substance or the corresponding solvent using a commercial test kit (C.K. Prest from Diagnostica Stago). The test compounds are incubated with the plasma and the PTT reagent (cephalin, kaolin) at 37° C. for 3 minutes. Coagulation is then started by addition of a 25 mM aqueous calcium chloride solution, and the time when coagulation occurs is determined. The concentration of test substance which brings about a 1.5-fold extension of the aPTT is determined Activity data from this test are listed in Table B below: […]

human plasmin = biological target: T1, human plasmin (Homo sapiens, UniProt P00747); experiment: Measurement of plasmin inhibition (fluorogenic peptide substrate MeOSuc-Ala-Phe-Lys-AMC); settings: plasmin from Kordia, 15 min preincubation, 30 min at 22° C., fluorescence
T1 construct: purchased Kordia
T1 sequence (P00747 581-810 limits assumed): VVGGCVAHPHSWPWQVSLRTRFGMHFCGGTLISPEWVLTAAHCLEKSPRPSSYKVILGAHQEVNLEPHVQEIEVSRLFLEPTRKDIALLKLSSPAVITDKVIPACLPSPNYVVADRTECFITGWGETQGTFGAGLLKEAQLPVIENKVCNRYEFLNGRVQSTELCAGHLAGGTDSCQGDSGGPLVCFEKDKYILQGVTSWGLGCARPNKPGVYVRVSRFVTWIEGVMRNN
T1 sequence (P00747 97-580 partner limits assumed): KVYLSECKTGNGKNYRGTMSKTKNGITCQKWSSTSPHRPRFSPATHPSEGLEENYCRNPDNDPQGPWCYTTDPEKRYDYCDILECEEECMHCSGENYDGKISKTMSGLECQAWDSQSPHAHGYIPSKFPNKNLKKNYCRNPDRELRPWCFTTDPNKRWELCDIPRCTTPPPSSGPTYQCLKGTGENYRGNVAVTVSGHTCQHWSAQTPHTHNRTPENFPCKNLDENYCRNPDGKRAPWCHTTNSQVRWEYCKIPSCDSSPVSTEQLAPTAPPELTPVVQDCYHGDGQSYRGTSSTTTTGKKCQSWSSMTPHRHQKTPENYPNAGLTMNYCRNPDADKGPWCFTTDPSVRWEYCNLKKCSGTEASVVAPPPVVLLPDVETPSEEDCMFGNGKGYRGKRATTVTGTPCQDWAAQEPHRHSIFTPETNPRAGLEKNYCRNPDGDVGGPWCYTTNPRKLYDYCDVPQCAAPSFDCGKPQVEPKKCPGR
Description: (§1) The plasmin inhibition of the inventive substances is determined using a biochemical test system which utilizes the reaction of a peptidic plasmin substrate to determine the enzymatic activity of human plasmin. Here, plasmin cleaves from the peptic plasmin substrate the C-terminal aminomethylcoumarin (AMC), the fluorescence of which is measured. The determinations are carried out in microtitre plates.
(§2) Test substances are dissolved in dimethyl sulphoxide and serially diluted in dimethyl sulphoxide (3000 μM to 0.0078 μM; resulting final concentrations in the test: 50 μM to 0.00013 μM). In each case 1 μl of the diluted substance solutions are placed into the wells of white microtitre plates from Greiner (384 wells). Subsequently, the following are added successively: 20 μl of assay buffer (50 mmol/l Tris buffer pH 7.4; 100 mmol/l sodium chloride; 5 mmol/l calcium chloride; 0.1% bovine serum albumin) and 20 μl of plasmin from Kordia (0.3 μg/ml in assay buffer). After 15 min of incubation, the enzyme reaction is started by addition of 20 μl of the plasmin substrate MeOSuc-Ala-Phe-Lys-AMC dissolved in assay buffer (150 μM in assay buffer) from Bachem, the mixture is incubated at room temperature (22° C.) for 30 min and fluorescence is then measured (excitation: 360 nm, emission: 460 nm). The measured emissions of the test batches with test substance are compared to those of control batches without test substance (only dimethyl sulphoxide instead of test substance in dimethyl sulphoxide), and ICso values are calculated from the concentration/activity relationships.

human factor XIa = biological target: T2, human factor XIa (Homo sapiens, UniProt P03951); experiment: Measurement of FXIa inhibition (fluorogenic peptide substrate Boc-Glu(OBzl)-Ala-Arg-AMC); settings: factor XIa from Kordia, 15 min preincubation, 30 min at 22° C., fluorescence
T2 construct: purchased Kordia
T2 sequence (P03951 388-625 limits assumed): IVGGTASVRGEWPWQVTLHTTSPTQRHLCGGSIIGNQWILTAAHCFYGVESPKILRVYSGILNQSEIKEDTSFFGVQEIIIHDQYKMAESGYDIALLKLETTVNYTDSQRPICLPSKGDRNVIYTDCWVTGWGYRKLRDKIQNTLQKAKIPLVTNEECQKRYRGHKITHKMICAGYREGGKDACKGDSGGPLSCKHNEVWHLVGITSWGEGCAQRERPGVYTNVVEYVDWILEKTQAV
T2 sequence (P03951 19-387 partner limits assumed): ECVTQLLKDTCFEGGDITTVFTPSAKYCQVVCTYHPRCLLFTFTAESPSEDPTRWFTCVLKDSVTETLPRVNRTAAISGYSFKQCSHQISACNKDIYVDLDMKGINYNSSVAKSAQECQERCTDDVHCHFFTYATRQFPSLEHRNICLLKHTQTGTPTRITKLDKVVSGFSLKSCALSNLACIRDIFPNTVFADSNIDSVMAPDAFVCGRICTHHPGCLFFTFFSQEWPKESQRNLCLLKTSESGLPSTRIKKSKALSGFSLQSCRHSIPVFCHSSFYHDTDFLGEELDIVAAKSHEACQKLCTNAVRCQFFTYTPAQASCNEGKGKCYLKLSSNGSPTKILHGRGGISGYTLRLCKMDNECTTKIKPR
Description: as §1, with “To determine the factor XIa” for “The plasmin”, “the” for “the inventive”, “according to the invention,” for “is determined using”, “system is used” for “system”, “factor XIa” for “plasmin”, “factor XIa.” for “plasmin.”
as §2, with “factor XIa” for “plasmin”, “(0.45 nM” for “(0.3 μg/ml”, “Boc-Glu(OBzl)-Ala-Arg-AMC” for “MeOSuc-Ala-Phe-Lys-AMC”, “(10” for “(150”, “IC50” for “ICso”

| Compound | aPTT (concentration of test substance which brings about a 1.5-fold extension of the aPTT) (human and animal plasma) [µmol/L] | IC50 (human plasmin) [nM] | IC50 (human factor XIa) [nM] | aPTT (concentration of test substance which brings about a 1.5-fold extension of the aPTT) (human and animal plasma; hydrochloride) [µmol/L] |
| --- | --- | --- | --- | --- |
| Cc1c(-c2ccc(C[C@H](NC(=O)[C@H]3CC[C@H](CN)CC3)C(=O)Nc3ccc4[nH]c(=O)[nH]c4c3)cc2)cc2nc(C3CCC3)[nH]c2c1F [Example 27, N-alpha-{[trans-4-(Aminomethyl)cyclohexyl]carbonyl}-4-(2-cyclobutyl-7-fluoro-6-methyl-1H-benzimidazol-5-yl)-N-(2-oxo-2,3-dihydro-1H-benzimidazol-5-yl)-L-phenylalaninamide] | 0.16 | 0.45 | 0.9 |  |
| Cc1cc2nc[nH]c2cc1-c1ccc(C[C@H](NC(=O)[C@H]2CC[C@H](CN)CC2)C(=O)Nc2ccc3c(=O)[nH][nH]c3c2)cc1 [Example 30, N-alpha-{[trans-4-(Aminomethyl)cyclohexyl]carbonyl}-4-(5-methyl-1H-benzimidazol-6-yl)-N-(3-oxo-2,3-dihydro-1H-indazol-6-yl)-L-phenylalaninamide hydrochloride] |  | 5.9 | 1.7 | 0.07 |
| CC(C)c1nc2cc(C(F)(F)F)c(-c3ccc(C[C@H](NC(=O)[C@H]4CC[C@H](CN)CC4)C(=O)Nc4ccc5[nH]c(=O)[nH]c5c4)cc3)cc2[nH]1 [Example 31, N-alpha-{[trans-4-(Aminomethyl)cyclohexyl]carbonyl}-4-[2-isopropyl-5-(trifluoromethyl)-1H-benzimidazol-6-yl]-N-(2-oxo-2,3-dihydro-1H-benzimidazol-5-yl)-L-phenylalaninamide hydrochloride] | 0.07 | 2.1 | 3.1 |  |
| CC(C)n1[nH]c2cc(-c3ccc(C[C@H](NC(=O)[C@H]4CC[C@H](CN)CC4)C(=O)Nc4ccc5cn[nH]c5c4)cc3)ccc2c1=O [Example 32, N-alpha-{[trans-4-(Aminomethyl)cyclohexyl]carbonyl}-N-1H-indazol-6-yl-4-(2-isopropyl-3-oxo-2,3-dihydro-1H-indazol-6-yl)-L-phenylalaninamide hydrochloride] | 0.43 | 8.7 | 28 |  |
| CC(C)n1[nH]c2cc(-c3ccc(C[C@H](NC(=O)[C@H]4CC[C@H](CN)CC4)C(=O)Nc4ccc5[nH]c(=O)[nH]c5c4)cc3)ccc2c1=O [Example 33, N-alpha-{[trans-4-(Aminomethyl)cyclohexyl]carbonyl}-4-(2-isopropyl-3-oxo-2,3-dihydro-1H-indazol-6-yl)-N-(2-oxo-2,3-dihydro-1H-benzimidazol-5-yl)-L-phenylalaninamide hydrochloride] | 0.1 | 5.9 | 17 |  |
| Cc1cc2c(=O)n(C(C)C)[nH]c2cc1-c1ccc(C[C@H](NC(=O)[C@H]2CC[C@H](CN)CC2)C(=O)Nc2ccc3[nH]c(=O)[nH]c3c2)cc1 [Example 34, N-alpha-{[trans-4-(Aminomethyl)cyclohexyl]carbonyl}-4-(2-isopropyl-5-methyl-3-oxo-2,3-dihydro-1H-indazol-6-yl)-N-(2-oxo-2,3-dihydro-1H-benzimidazol-5-yl)-L-phenylalaninamide hydrochloride] | 0.11 | 1.7 | 1.5 |  |
| CC(C)c1nc2c(F)c(F)c(-c3ccc(C[C@H](NC(=O)[C@H]4CC[C@H](CN)CC4)C(=O)Nc4ccc5[nH]c(=O)[nH]c5c4)cc3)cc2[nH]1 [Example 35, N-alpha-{[trans-4-(Aminomethyl)cyclohexyl]carbonyl}-4-(4,5-difluoro-2-isopropyl-1H-benzimidazol-6-yl)-N-(2-oxo-2,3-dihydro-1H-benzimidazol-5-yl)-L-phenylalaninamide hydrochloride] | 0.54 | 1.5 | 6.9 |  |
| Cc1cc2nc(C3CC3)nn2cc1-c1ccc(C[C@H](NC(=O)[C@H]2CC[C@H](CN)CC2)C(=O)Nc2ccc3[nH]c(=O)[nH]c3c2)cc1 [Example 36, N-alpha-{[trans-4-(Aminomethyl)cyclohexyl]carbonyl}-4-(2-cyclopropyl-7-methyl[1,2,4]triazolo[1,5-a]pyridin-6-yl)-N-(2-oxo-2,3-dihydro-1H-benzimidazol-5-yl)-L-phenylalaninamide hydrochloride] | 0.08 | 1.2 | 3.6 |  |
| Cc1cc2nc(C(C)C)[nH]c2nc1-c1ccc(C[C@H](NC(=O)[C@H]2CC[C@H](CN)CC2)C(=O)Nc2ccc3[nH]c(=O)[nH]c3c2)cc1 [Example 37, N-alpha-{[trans-4-(Aminomethyl)cyclohexyl]carbonyl}-4-(2-isopropyl-6-methyl-3H-imidazo[4,5-b]pyridin-5-yl)-N-(2-oxo-2,3-dihydro-1H-benzimidazol-5-yl)-L-phenylalaninamide hydrochloride] | 0.06 | 0.5 | 4.9 |  |
